Reference: patent publication EP1169036B1, “ANTI-VIRAL USES OF LEFLUNOMIDE PRODUCTS” (priority 1998, dated 1999)
pIC50: −log10 of the molar value. Like-named read-outs stand apart in the source and are kept apart here.

Columns and labels:
[1] = system: Madin Darby canine kidney (MDCK) cells; experiment: cells; type: cell-based; settings: Canis lupus familiaris, cytotoxic concentration, positive control drug = ribavirin, read-out: CPE Inhibition test IC50
[2] = system: African green monkey kidney (MA-104) cells; experiment: Cytotoxicity, neutral red uptake by toxicity control cells; type: cell-based; settings: Chlorocebus sabaeus, MA104, cytotoxic concentration, positive control drug = ribavirin, read-out: Neutral Red Uptake test IC50
[3] = system: African green monkey kidney (CV-1) cells; experiment: cells; type: cell-based; settings: Chlorocebus sabaeus, read-out: CPE Inhibition test IC50
HSV DNA polymerase = target: T1, HSV DNA polymerase (Human herpesvirus 1, UniProt P04293); experiment: HSV DNA polymerase biochemical assay; settings: all HSV isolates in VERO cells and HUVEC
T1 construct: a biochemical assay of HSV DNA polymerase activity in HSV-infected cells; endogenous in cells

uninfected cells [4] = experiment: Cytotoxicity, microscopic reading of uninfected cells in the CPE inhibition test (rhinovirus host cells, not named); type: cell-based
Procedure: (§1) Cytotoxicity of each test compound is also evaluated as follows. In the initial CPE inhibition tests, two wells of uninfected cells treated with each concentration of test compound are run in parallel with the infected, treated wells. When the CPE is determined microscopically, the toxicity control cells are also examined microscopically for any changes in cell appearance compared to normal uninfected, untreated control cells. Changes, which may manifest as enlargement, granularity, ragged edges, filmy appearance, rounding, detachment from the surface of the well, or other changes, are given a designation of T (100% toxic), PVH (partially toxic-very heavy-80%), PH (partially toxic-heavy-60%), P (partially toxic-40%), PS (partially toxic-slight-20%) or 0 (no toxicity-0%) in accordance with the degree of cytotoxicity observed. […] A neutral red IC50 is also determined based on uptake of neutral red dye by the toxicity control cells.

[5] = system: viral immediate early (IE1) or late glycoprotein (gB) mRNA; experiment: Northern blot of viral mRNA in infected HUVEC; type: cell-based, CMV; settings: 200 µM A771726, 48 hours
Procedure: Northern blot analysis was employed to determine whether A771726 quantitatively affected transcription of viral immediate early (IE1) or late glycoprotein (gB) mRNA.
HUVEC monolayers in 6-well culture plates were inoculated with CMV strain VHL/E (0.5 PFU/cell) in the presence or absence of 200 µM A771726 and/or 200 µM uridine (6 wells/treatment) as described above, and incubated for 48 hours. […] Total cytoplasmic RNA was isolated from each culture, by 18-hour ultracentrifugation of guanidine isothiocyanate/BME extracts overlayed on cesium chloride cushions. […] 50 ng of full-length IE1 and gB were incubated in a 50 µl PCR reaction including a nucleotide triphosphate mix containing 700 nM α-[^32P]dCTP (Amersham) and either IE1 primers [IE1 sense: 5' […] 3' (SEQ ID NO: 1) and IE1 antisense: 5'[…] 3' (SEQ ID NO: 2)] or gB primers [gB sense: 5 […] 3' (SEQ ID NO: 3) and gB antisense: 5' […] 3' (SEQ ID NO: 4)]. A cDNA probe for GAPDH was radiolabelled using a random priming kit (Decaprime II, Ambion, Inc., Austin TX) as previously described. […] Membranes were hybridized, washed, and bound probe was detected by autoradiography as previously described. Membranes were stripped and reprobed for GAPDH, and scanning densitometry was used to quantitate IE1 and gB band densities, and to normalize these values to those of GAPDH.

[6] = system: human lung carcinoma (A549) cells; experiment: cells; type: cell-based; settings: read-out: Neutral Red Uptake test IC50
uninfected cells [7] = experiment: Cytotoxicity, neutral red uptake by toxicity control cells (rhinovirus host cells, not named); type: cell-based; settings: read-out: Neutral Red Uptake test IC50
Procedure: as §1

CMV strain VHL/E = experiment: Transmission electron microscopy of virion morphology in CMV-infected HUVEC; type: cell-based; settings: 200 µM A771726, 4-7 days
Procedure: Transmission electron microscopy.was employed to directly examine virion morphology within A771726-treated or untreated CMV-infected HUVEC. HUVEC monolayers in 6-well culture plates were inoculated with CMV strain VHL/E (1.0 PFU/cell) in the presence or absence of 200 µM A771726 as described above, and incubated for 4-7 days. Cells were harvested by brief trypsin digestion, washed twice in PBS, then fixed by the.addition of 1 ml 2% phosphate buffered gluteraldehyde and again pelleted by centrifugation. Specimens were post-fixed in 1% phosphate buffered osmium tetroxide (1 hour), then dehydrated in graded ethanol washes. Specimens were embedded in Spur low viscosity embedding media (SEM). Blocks were cured for a minimum of 12 hours at 70°C. Thin sections (approximately 100 nm) were cut from cured blocks using an ultramicrotome (LKB Nova), and mounted on 200 mesh copper grids. Grids were heavy metal-stained using a standard two-step uranyl acetate/lead citrate technique, then examined and photographed at 80 kV with a Zeiss EM900 transmission electron microscope by an individual with no knowledge of the nature of the investigation.

HSV = experiment: Transmission electron microscopy of virion morphology in HSV-infected HUVEC; type: cell-based
[8] = system: African green monkey kidney (MA-104) cells; experiment: cells; type: cell-based; settings: Chlorocebus sabaeus, MA104, cytotoxic concentration, positive control drug = ribavirin, read-out: CPE Inhibition test IC50
[9] = run with Parainfluenza Type 3 Virus
[10] = run with Respiratory Syncytial Virus A

T1 sequence (P10226 whole entry): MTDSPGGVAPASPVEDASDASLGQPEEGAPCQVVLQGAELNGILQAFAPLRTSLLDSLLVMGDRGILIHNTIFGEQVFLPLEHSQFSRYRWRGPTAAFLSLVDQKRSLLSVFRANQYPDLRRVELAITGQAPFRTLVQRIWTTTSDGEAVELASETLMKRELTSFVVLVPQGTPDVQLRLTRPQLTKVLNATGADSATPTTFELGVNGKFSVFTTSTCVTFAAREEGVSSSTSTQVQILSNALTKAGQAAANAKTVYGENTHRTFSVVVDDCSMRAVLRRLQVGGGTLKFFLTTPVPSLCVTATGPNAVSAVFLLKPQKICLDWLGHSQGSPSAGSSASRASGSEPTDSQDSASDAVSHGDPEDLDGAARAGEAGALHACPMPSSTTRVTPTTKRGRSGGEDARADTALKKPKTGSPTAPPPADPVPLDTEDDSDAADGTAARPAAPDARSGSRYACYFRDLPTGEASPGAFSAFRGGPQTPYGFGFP
T1 sequence (P04293 whole entry): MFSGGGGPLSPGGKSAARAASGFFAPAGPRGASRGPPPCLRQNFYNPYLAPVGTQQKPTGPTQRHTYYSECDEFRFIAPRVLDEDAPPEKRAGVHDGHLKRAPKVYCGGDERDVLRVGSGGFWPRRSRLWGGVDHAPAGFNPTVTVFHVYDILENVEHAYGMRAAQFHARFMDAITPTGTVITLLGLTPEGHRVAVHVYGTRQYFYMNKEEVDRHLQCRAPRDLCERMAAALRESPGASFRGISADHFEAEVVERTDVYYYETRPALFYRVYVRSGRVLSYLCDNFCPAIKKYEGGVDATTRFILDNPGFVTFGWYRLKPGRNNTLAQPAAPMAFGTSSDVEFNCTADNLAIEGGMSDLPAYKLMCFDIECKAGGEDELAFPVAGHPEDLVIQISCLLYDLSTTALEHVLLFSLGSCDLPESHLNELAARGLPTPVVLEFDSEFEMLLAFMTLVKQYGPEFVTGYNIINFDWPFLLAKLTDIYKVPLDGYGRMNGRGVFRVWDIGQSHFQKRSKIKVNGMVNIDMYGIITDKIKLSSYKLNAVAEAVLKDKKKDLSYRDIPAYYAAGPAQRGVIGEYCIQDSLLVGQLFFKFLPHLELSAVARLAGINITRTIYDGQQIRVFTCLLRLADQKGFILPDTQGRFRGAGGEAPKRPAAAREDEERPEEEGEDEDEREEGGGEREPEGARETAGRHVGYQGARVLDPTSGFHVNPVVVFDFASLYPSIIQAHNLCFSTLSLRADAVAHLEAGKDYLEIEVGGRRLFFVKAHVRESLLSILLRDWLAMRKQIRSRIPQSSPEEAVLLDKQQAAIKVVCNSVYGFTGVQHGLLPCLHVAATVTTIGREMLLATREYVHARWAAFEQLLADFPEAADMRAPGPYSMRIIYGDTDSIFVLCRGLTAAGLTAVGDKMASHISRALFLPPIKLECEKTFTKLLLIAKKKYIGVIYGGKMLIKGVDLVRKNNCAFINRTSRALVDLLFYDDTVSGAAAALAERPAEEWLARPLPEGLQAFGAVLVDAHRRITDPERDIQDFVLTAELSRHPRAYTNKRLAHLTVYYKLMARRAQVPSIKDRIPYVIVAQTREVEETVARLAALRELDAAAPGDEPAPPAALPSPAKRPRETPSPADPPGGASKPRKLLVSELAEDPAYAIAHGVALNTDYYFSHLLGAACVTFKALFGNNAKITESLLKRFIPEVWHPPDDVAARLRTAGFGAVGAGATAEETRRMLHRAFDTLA

C/C(O)=C(\C#N)C(=O)Nc1ccc(C(F)(F)F)cc1 [Compound A771726, N-(4-trifluoromethylphenyl)-2-cyano-3-hydroxycrotonamide]
pIC50 ([1]; run with Influenza A (H1N1)): 4.54 | pIC50 ([1]; run with Influenza A (H3N2)): 4.52 | pIC50 ([1]; run with Influenza B): 4.30 | pIC50 [2, 9]: 4.30 | pIC50 [2, 10]: 3.84 | pIC50 [3]: < 3.18 | HSV DNA polymerase activity (HSV DNA polymerase): no detectable inhibitory effect | pIC50 (uninfected cells [4]): 3.00 | transcription of IE1 or gB genes [5]: no inhibitory effect | pIC50 [6]: 3.24 | pIC50 (uninfected cells [7]): 3.30 | virion morphology in the cytoplasm (CMV strain VHL/E): viral particles appeared not to have matured far beyond the 100 nM naked capsid stage | virion morphology, tegument acquisition (HSV): appear not to acquire tegument | pIC50 [8, 9]: 4.52 | pIC50 [8, 10]: 4.70
